The target of data set [1] is T1, α-glucosidase enzyme (EC3.2.1.20) (Saccharomyces cerevisiae, UniProt P38158).
T1 construct: purchased Sigma-Aldrich
The experiment in a line: biochemical. Type of data set: biochemical. How it is done: α-glucosidase enzyme (EC3.2.1.20, Saccharomyces cerevisiae, 20 U/mg) and substrate (p-nitrophenyl glucopyranoside) were purchased from Sigma-Aldrich. α-glucosidase was dissolved in potassium phosphate buffer (50 mM, pH = 6.8) to obtain the initial activity of 1 U/ml. Then, 20 µl of this enzyme solution was added to 135 µl of potassium phosphate buffer and 20 µl of test compound at various concentrations in DMSO. After 10 min incubation at 37 °C, 25 µl of the substrate at a final concentration of 4 mM was added to the mixture and allowed to incubate at 37 °C for 20 min. Then, the change in absorbance was measured at 405 nm spectroscopically. […] The percentage of inhibition for each entry was calculated by using the following formula: \%Inhibition=Abs control-Abs sample/Abs control×100 IC50 values were obtained from the nonlinear regression curve using the Logit method[15],[29].

The target of data set [2] is α-glucosidase. Particulars: cited from earlier work.
Details of data set [3]: method as in PMID 29980114. Particulars: at the tested concentrations; cited from earlier work.
The target in data set [4] is T2, α-glucosidase (Saccharomyces cerevisiae, UniProt P38158).
T2 construct: purchased Sigma-Aldrich
T2 sequence (P38158 whole entry): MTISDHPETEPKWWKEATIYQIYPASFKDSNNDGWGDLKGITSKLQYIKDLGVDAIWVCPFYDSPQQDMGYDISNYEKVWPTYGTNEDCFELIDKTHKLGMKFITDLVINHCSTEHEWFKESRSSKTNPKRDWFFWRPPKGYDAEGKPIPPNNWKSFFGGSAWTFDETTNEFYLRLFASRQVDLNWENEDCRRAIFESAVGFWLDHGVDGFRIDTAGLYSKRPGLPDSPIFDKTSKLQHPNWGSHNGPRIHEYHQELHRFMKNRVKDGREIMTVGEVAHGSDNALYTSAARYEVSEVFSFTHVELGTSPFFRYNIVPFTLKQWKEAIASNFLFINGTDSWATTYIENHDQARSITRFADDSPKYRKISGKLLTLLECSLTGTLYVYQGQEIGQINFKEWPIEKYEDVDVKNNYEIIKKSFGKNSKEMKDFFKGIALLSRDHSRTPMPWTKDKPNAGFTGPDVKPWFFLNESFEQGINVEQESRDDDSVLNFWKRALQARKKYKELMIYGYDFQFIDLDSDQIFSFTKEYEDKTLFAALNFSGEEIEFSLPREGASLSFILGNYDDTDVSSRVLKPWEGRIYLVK
Description: Enzyme kinetic studies (Lineweaver–Burk plot, secondary plot). It is filed as biochemical. How it is done:
A Lineweaver–Burk plot was generated to identify the type of inhibition and the Michaelis–Menten constant (Km) value was determined from the plot between the reciprocal of the substrate concentration (1/[S]) and reciprocal of enzyme rate (1/V) over various inhibitor concentrations.

Where [5] appears, read: previously reported inhibitors, Fig. 1, recent research.
Setting [6] is: previously reported aryl-hydrazide inhibitors, Fig. 1, read-out: IC50.

The melting point is the temperature of the solid-liquid transition. For orientation: IC50 means the concentration at which inhibition is half-maximal. A word on the Ki: it is the dissociation constant of the complex between target and ligand, obtained from inhibition or displacement.

Read-outs that look alike come from different tables or passages of the source.

T1 sequence (P38158 whole entry): as above

In turn, `O=C(CSc1nc2ccccc2cc1C=NNC(=O)c1ccccc1)Nc1ccccc1` [Compound 9a, 2-((3-((2-Benzoylhydrazineylidene)methyl)quinolin-2-yl)thio)-N-phenylacetamide] displayed a melting point of 245 to 247 °C. Also, the IC50 in data set [1] is 88.5 ± 1.3 µM. In data set [1] (versus acarbose), the “improvement in inhibitory potency compared to the positive control” value is on record as “approximately nine-fold”.

Take `O=C(CSc1nc2ccccc2cc1C=NNC(=O)c1ccccc1)Nc1ccc([N+](=O)[O-])cc1` [Compound 9g, 2-((3-((2-benzoylhydrazineylidene)methyl)quinolin-2-yl)thio)-N-(4-nitrophenyl)acetamide]: the melting point is 241 to 243 °C. The compound further registered an IC50 in data set [1] of 93.7 ± 1.5 µM.

For the compound `O=C(CSc1nc2ccccc2cc1C=NNC(=O)c1ccccc1)NCc1ccc(F)cc1` [Compound 9p, 2-((3-((2-Benzoylhydrazineylidene)methyl)quinolin-2-yl)thio)-N-(4-fluorobenzyl)acetamide], the melting point is 269 to 271 °C. Further, inhibition in data set [1] was half-maximal at 78 ± 2.4 µM (IC50).

`Cc1cccc(NC(=O)CSc2nc3ccccc3cc2C=NNC(=O)c2ccccc2)c1C` [Compound 9l, 2-((3-((2-Benzoylhydrazineylidene)methyl)quinolin-2-yl)thio)-N-(2,3-dimethylphenyl)acetamide]: the melting point was 241 to 243 °C. The same compound displayed an IC50 in data set [1] of 37.99 ± 0.2 µM.

Turning to `COc1ccc(NC(=O)CSc2nc3ccccc3cc2C=NNC(=O)c2ccccc2)cc1` [Compound 9j, 2-((3-((2-Benzoylhydrazineylidene)methyl)quinolin-2-yl)thio)-N-(4-methoxyphenyl)acetamide], the melting point fell in the range of 241 to 243 °C. This compound showed an IC50 in data set [1] of 24.7 ± 0.3 µM.

As to `O=C(O)c1ccc2ccccc2n1` [A], the IC50 at α-glucosidase [2] (setting [5]) was 9.1 ± 2.3 µg/mL.

`CCc1ccc(NC(=O)CSc2nc3ccccc3cc2C=NNC(=O)c2ccccc2)cc1` [Compound 9k, 2-((3-((2-Benzoylhydrazineylidene)methyl)quinolin-2-yl)thio)-N-(4-ethylphenyl)acetamide]: the melting point was 255 to 257 °C. This compound also yielded an IC50 in data set [1] of 60.4 ± 0.2 µM.

`O=C(N/N=C/c1ccc(Cl)cc1)c1ccc(-c2nc3ccccc3s2)cc1` [E]: on α-glucosidase [2] (setting [6]), the IC50 is 83.8 ± 0.89 µM.

`Cc1ccccc1NC(=O)CSc1nc2ccccc2cc1C=NNC(=O)c1ccccc1` [Compound 9h, 2-((3-((2-Benzoylhydrazineylidene)methyl)quinolin-2-yl)thio)-N-(o-tolyl)acetamide] showed a melting point of 260 to 263 °C. Also, the IC50 in data set [1] worked out at 141.8 ± 0.6 µM.

On to `O=C(O)c1cnc2ccccc2c1` [B], for which the concentration for half-maximal inhibition (IC50) at α-glucosidase [2] (setting [5]) was 10.6 ± 1.4 µg/mL.

As for `O=C(CSc1nc2ccccc2cc1C=NNC(=O)c1ccccc1)NCc1ccccc1` [Compound 9o, 2-((3-((2-Benzoylhydrazineylidene)methyl)quinolin-2-yl)thio)-N-benzylacetamide], the melting point was in the range of 241 to 243 °C. The compound also displayed a half-maximal inhibitory concentration (IC50) in data set [1] of 373.8 ± 0.8 µM.

`COc1ccc2nc3cc(Cl)ccc3c(SCC(=O)Nc3ccc(C)cc3)c2c1` [D]: the toxicity result in data set [3] is “no toxicity”. The IC50 on α-glucosidase [2] (previously reported inhibitor and its positive control, read-out: IC50) was 80 ± 2 µM.

In turn, `O=C(CSc1nc2ccccc2cc1C=NNC(=O)c1ccccc1)Nc1ccc(Cl)cc1` [Compound 9e, 2-((3-((2-Benzoylhydrazineylidene)methyl)quinolin-2-yl)thio)-N-(4-chlorophenyl)acetamide] gave a melting point of 262 to 264 °C. Besides, the IC50 in data set [1] stood at 234.9 ± 0.9 µM.

In the case of `O=C(CSc1nc2ccccc2cc1C=NNC(=O)c1ccccc1)Nc1ccc2ccccc2c1` [Compound 9n, 2-((3-((2-Benzoylhydrazineylidene)methyl)quinolin-2-yl)thio)-N-(naphthalen-2-yl)acetamide], the melting point fell in the range of 263 to 265 °C. Besides, the concentration for half-maximal inhibition (IC50) in data set [1] stood at 18.4 ± 0.4 µM.

As for `O=C(CSc1nc2ccccc2cc1C=NNC(=O)c1ccccc1)Nc1ccccc1F` [Compound 9b, 2-((3-((2-Benzoylhydrazineylidene)methyl)quinolin-2-yl)thio)-N-(2-fluorophenyl)acetamide], the melting point fell in the range of 268 to 270 °C. The compound further displayed an IC50 in data set [1] of 109.4 ± 0.2 µM.

The compound `Cc1ccc(NC(=O)CSc2nc3ccccc3cc2C=NNC(=O)c2ccccc2)cc1` [Compound 9i, 2-((3-((2-Benzoylhydrazineylidene)methyl)quinolin-2-yl)thio)-N-(p-tolyl)acetamide] yielded a melting point of 254 to 256 °C. In addition, in data set [1], the IC50 amounted to 305 ± 1.1 µM.

`O=C(CSc1nc2ccccc2cc1C=NNC(=O)c1ccccc1)Nc1ccc(Br)cc1` [Compound 9f, 2-((3-((2-Benzoylhydrazineylidene)methyl)quinolin-2-yl)thio)-N-(4-bromophenyl)acetamide] returned a melting point of 254 to 257 °C. The same compound yielded an IC50 in data set [1] of 352.4 ± 1.1 µM.

For `O=C(CSc1nc2ccccc2cc1-c1nc2ccccc2[nH]1)Nc1cccc(Cl)c1` [C], the IC50 at α-glucosidase [2] (previously reported inhibitor, Fig. 1, read-out: IC50) is 3.2 ± 0.3 µM.

Turning to `O=C(CSc1nc2ccccc2cc1C=NNC(=O)c1ccccc1)Nc1cccc(Cl)c1` [Compound 9d, 2-((3-((2-Benzoylhydrazineylidene)methyl)quinolin-2-yl)thio)-N-(3-chlorophenyl)acetamide], the melting point was 255 to 257 °C. In data set [1], this compound returned an IC50 of 193.8 ± 1 µM.

Consider `Cc1cccc(C)c1NC(=O)CSc1nc2ccccc2cc1/C=N/NC(=O)c1ccccc1` [Compound 9m, 2-((3-((2-Benzoylhydrazineylidene)methyl)quinolin-2-yl)thio)N(2,6dimethylphenyl)acetamide], for which, on α-glucosidase [4] (Lineweaver–Burk plot, Km increased, Vmax unchanged), the mode of inhibition result is given as “competitive”. Also, on α-glucosidase [4] (from plot of Km versus inhibitor concentration, read-out: Ki (inhibition constant)), the inhibition constant Ki is 18 µM. The IC50 in data set [1] (α-glucosidase inhibition, mean ± SD, read-out: IC50) was determined as 14 ± 0.6 µM.

Turning to `O=C(N/N=C/c1cccc(F)c1)c1ccc2nc(-c3ccccc3)c(-c3ccccc3)nc2c1` [F], the IC50 at α-glucosidase [2] (setting [6]) was 111 ± 6 µM.

For the compound `O=C(CSc1nc2ccccc2cc1C=NNC(=O)c1ccccc1)Nc1ccc(F)cc1` [Compound 9c, 2-((3-((2-Benzoylhydrazineylidene)methyl)quinolin-2-yl)thio)-N-(4-fluorophenyl)acetamide], the melting point lay within 271 to 273 °C. Moreover, the IC50 in data set [1] worked out at 46 ± 0.5 µM.

The values are drawn from article PMC10185516, “Synthesis, in vitro inhibitor screening, structure–activity relationship, and molecular dynamic simulation studies of novel thioquinoline derivatives as potent α-glucosidase inhibitors” (Scientific Reports, 2023).
